BindingDB's records for doi:10.1021/jm000940u (Aventis Pharma, 2000)

Columns and labels:
[1] = biological target: Prothrombin (Homo sapiens, UniProt P00734); test: Enzyme Assay and Determination of the Inhibition Constants.; details: pH 7.5; 22 °C
[2] = biological target: T1, Serine protease 1 (Bos taurus, UniProt P00760); test: as above; details: pH 7.5; 22 °C
T1 sequence (P00760 whole entry): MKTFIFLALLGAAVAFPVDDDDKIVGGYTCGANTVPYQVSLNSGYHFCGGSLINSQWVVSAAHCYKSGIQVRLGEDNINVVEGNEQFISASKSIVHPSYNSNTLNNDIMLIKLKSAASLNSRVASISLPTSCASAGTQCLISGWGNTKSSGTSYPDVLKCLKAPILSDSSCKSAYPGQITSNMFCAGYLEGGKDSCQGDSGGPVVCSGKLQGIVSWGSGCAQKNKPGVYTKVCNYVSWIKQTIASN

Ki [1] [µM] | Ki [2] [nM] | SMILES
> 4 | – | N=C(N)c1ccc(O)c(CN2CC[C@H](NS(=O)(=O)c3cc4ncccc4s3)C2=O)c1
> 4 | > 2900 | O=C1[C@@H](NS(=O)(=O)c2cc3ncccc3s2)CCN1Cc1cc2ccncc2[nH]1 [N-[(3S)-1-(4,7-diazabicyclo[4.3.0]nona-2,4,8,10-tetraen-8-ylmethyl)-2-oxo-pyrrolidin-3-yl]-7-thia-2-azabicyclo[4.3.0]nona-2,4,8,10-tetraene-8-sulfonamide]
> 4 | > 2900 | Nc1nccc2ccc(CN3CC[C@H](NS(=O)(=O)c4cc5ncccc5s4)C3=O)cc12 [N-[(3S)-1-[(1-aminoisoquinolin-7-yl)methyl]-2-oxopyrrolidin-3-yl]thieno[3,2-b]pyridine-2-sulfonamide]
